ChEMBL document CHEMBL1201862, “PubChem BioAssay data set” (2004)
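Exposure lasted 48 hours, with cells grown in 96-well plates and compounds tested at five concentrations. GI50: concentration for 50% inhibition of growth.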 Calls of active or inactive are those of the source. Cut-off read from the data, not from the text of the source: active = GI50 up to about 1.1 µM and inactive = higher.

Legend:
Test in all cases: NCI tumour cell line growth inhibition, 48 h
OVCAR-4 = system: OVCAR-4
U-251 = system: U-251
LOX IMVI = system: LOX IMVI
SK-MEL-2 = system: SK-MEL-2
Malme-3M = system: Malme-3M
SK-MEL-5 = system: SK-MEL-5
TK-10 = system: TK-10
K562 = system: K562
HCC 2998 = system: HCC 2998
KM-20L2 = system: KM-20L2
NCI-H23 = system: NCI-H23
UACC-257 = system: UACC-257
MDA-MB-435 = system: MDA-MB-435
PC-3 = system: PC-3
T47D = system: T47D
NCI/ADR-RES = system: NCI/ADR-RES
BT-549 = system: BT-549
HCT-116 = system: HCT-116
SR = system: SR
MCF7 = system: MCF7

| SMILES | GI50 (OVCAR-4) | GI50 (U-251) | GI50 (LOX IMVI) | GI50 (SK-MEL-2) | GI50 (Malme-3M) | GI50 (SK-MEL-5) | GI50 (TK-10) | GI50 (K562) | GI50 (HCC 2998) | GI50 (KM-20L2) | GI50 (NCI-H23) | GI50 (UACC-257) | GI50 (MDA-MB-435) | GI50 (PC-3) | GI50 (T47D) | GI50 (NCI/ADR-RES) | GI50 (BT-549) | GI50 (HCT-116) | GI50 (SR) | GI50 (MCF7) |
| --- | --- | --- | --- | --- | --- | --- | --- | --- | --- | --- | --- | --- | --- | --- | --- | --- | --- | --- | --- | --- |
| CCc1cccc(C)c1NC(=O)C1=C(C)NC(C)=C(C(=O)Nc2c(C)cccc2CC)C1c1ccc([N+](=O)[O-])cc1 | 13.4 µM (inactive) | 60 µM (inactive) | 40.9 µM (inactive) | 35.6 µM (inactive) | 75.3 µM (inactive) | 34 µM (inactive) | 83.9 µM (inactive) | 23.9 µM (inactive) | 21.3 µM (inactive) | 39.9 µM (inactive) | 27.3 µM (inactive) | 41.8 µM (inactive) | – | – | – | – | – | – | – | – |
| C=C(C)C1CC=C(C)C2(C1)OCC(C)(C)C(C)O2 (centres undefined) | 17.1 µM (inactive) | 16.7 µM (inactive) | 17.5 µM (inactive) | 17.8 µM (inactive) | 14.5 µM (inactive) | 15.2 µM (inactive) | 47.4 µM (inactive) | 18.5 µM (inactive) | 28.3 µM (inactive) | – | 20.7 µM (inactive) | 21.1 µM (inactive) | 21.3 µM (inactive) | 30.1 µM (inactive) | 18.4 µM (inactive) | 17.9 µM (inactive) | 17.3 µM (inactive) | 16.3 µM (inactive) | 18.2 µM (inactive) | 17.1 µM (inactive) |
| COC(=O)C1Cc2cccc(C)c2C1 (centres undefined) | > 100 µM (inactive) | 89.3 µM (inactive) | 42 µM (inactive) | > 100 µM (inactive) | > 100 µM (inactive) | > 100 µM (inactive) | > 100 µM (inactive) | 48.4 µM (inactive) | > 100 µM (inactive) | – | > 100 µM (inactive) | > 100 µM (inactive) | > 100 µM (inactive) | > 100 µM (inactive) | > 100 µM (inactive) | 62.2 µM (inactive) | > 100 µM (inactive) | > 100 µM (inactive) | 79.3 µM (inactive) | 19.1 µM (inactive) |
| CCCC(=O)OCC1OC(n2cc(F)c(=O)[nH]c2=O)CC1O (centres undefined) | > 10 µM (inactive) | 1.79 µM (inactive) | 0.0303 µM (active) | > 9.64 µM (inactive) | > 5.06 µM (inactive) | 0.221 µM (active) | 1.26 µM (inactive) | 1.87 µM (inactive) | 0.00381 µM (active) | – | 0.127 µM (active) | 4.1 µM (inactive) | > 7.98 µM (inactive) | 0.746 µM (active) | 6.44 µM (inactive) | 1.7 µM (inactive) | 0.929 µM (active) | 0.614 µM (active) | 0.0265 µM (active) | 0.00463 µM (active) |
| O=c1cc(-c2ccccc2)nc(/C=C(\O)c2ccncc2)n1-c1ccccc1 | > 100 µM (inactive) | > 100 µM (inactive) | > 100 µM (inactive) | > 100 µM (inactive) | > 100 µM (inactive) | > 100 µM (inactive) | > 100 µM (inactive) | > 100 µM (inactive) | > 100 µM (inactive) | > 100 µM (inactive) | > 100 µM (inactive) | > 100 µM (inactive) | – | – | – | – | – | > 100 µM (inactive) | – | – |
| O=C(N/N=C/c1ccc([N+](=O)[O-])cc1)Nc1ccc(C(=O)O)cc1 | 21.2 µM (inactive) | 28.2 µM (inactive) | 31.3 µM (inactive) | 25 µM (inactive) | 53 µM (inactive) | 16.3 µM (inactive) | 34.4 µM (inactive) | 13.3 µM (inactive) | 20.2 µM (inactive) | – | 23.2 µM (inactive) | 28.4 µM (inactive) | 29 µM (inactive) | 32.1 µM (inactive) | 11 µM (inactive) | 27 µM (inactive) | 35.2 µM (inactive) | 22.3 µM (inactive) | 43.5 µM (inactive) | 27.4 µM (inactive) |
| COc1cc2c(cc1OC)C1=CCC(c3ccccc3)[N+]1(C)CC2 (centres undefined) | > 100 µM (inactive) | > 100 µM (inactive) | > 100 µM (inactive) | > 100 µM (inactive) | 56.9 µM (inactive) | 78.5 µM (inactive) | > 100 µM (inactive) | > 100 µM (inactive) | > 100 µM (inactive) | – | > 100 µM (inactive) | 33.5 µM (inactive) | > 100 µM (inactive) | > 100 µM (inactive) | > 100 µM (inactive) | > 100 µM (inactive) | > 100 µM (inactive) | > 100 µM (inactive) | > 100 µM (inactive) | > 100 µM (inactive) |
| CC(C)[C@H](COC(C)(C)C)/N=C/N1CSc2ccccc21 | 27.9 µM (inactive) | 32.5 µM (inactive) | 33.7 µM (inactive) | 36.2 µM (inactive) | – | 25.1 µM (inactive) | 51.5 µM (inactive) | 33.7 µM (inactive) | 47.3 µM (inactive) | 27.8 µM (inactive) | 36.5 µM (inactive) | – | – | – | – | – | – | 27.6 µM (inactive) | – | – |
| CCOC(=O)N/N=C(\CC)NO | > 100 µM (inactive) | > 100 µM (inactive) | > 100 µM (inactive) | > 100 µM (inactive) | > 100 µM (inactive) | > 100 µM (inactive) | > 100 µM (inactive) | > 100 µM (inactive) | > 100 µM (inactive) | – | > 100 µM (inactive) | > 100 µM (inactive) | > 100 µM (inactive) | > 100 µM (inactive) | > 100 µM (inactive) | > 100 µM (inactive) | > 100 µM (inactive) | > 100 µM (inactive) | > 100 µM (inactive) | > 100 µM (inactive) |
| CC(C)NC(=O)OCCN=c1c2ccccc2ccc2ccccc12 | 33.9 µM (inactive) | 38.3 µM (inactive) | 44.9 µM (inactive) | 23.7 µM (inactive) | 46.1 µM (inactive) | 17.6 µM (inactive) | 50.7 µM (inactive) | 25 µM (inactive) | 40 µM (inactive) | – | > 100 µM (inactive) | 42.6 µM (inactive) | 46.6 µM (inactive) | 23.8 µM (inactive) | 15.6 µM (inactive) | 32.6 µM (inactive) | 49.4 µM (inactive) | 34.7 µM (inactive) | 24.8 µM (inactive) | 44.9 µM (inactive) |
| CCCCCCCCCCCCC(Br)C(C)=O (centres undefined) | > 100 µM (inactive) | > 100 µM (inactive) | > 100 µM (inactive) | > 100 µM (inactive) | > 100 µM (inactive) | > 100 µM (inactive) | > 100 µM (inactive) | – | > 100 µM (inactive) | > 100 µM (inactive) | > 100 µM (inactive) | > 100 µM (inactive) | – | – | – | – | – | > 100 µM (inactive) | – | – |
| C[N+]12CCCCC1C(COc1cccc3cccnc13)CCC2 (centres undefined) | > 100 µM (inactive) | > 100 µM (inactive) | 93.5 µM (inactive) | > 100 µM (inactive) | > 100 µM (inactive) | 75 µM (inactive) | > 100 µM (inactive) | 77.4 µM (inactive) | > 100 µM (inactive) | – | > 100 µM (inactive) | > 100 µM (inactive) | > 100 µM (inactive) | > 100 µM (inactive) | > 100 µM (inactive) | > 100 µM (inactive) | 42 µM (inactive) | 61.2 µM (inactive) | > 100 µM (inactive) | > 100 µM (inactive) |
| O=[N+]([O-])C(=C(Sc1ccccc1)Sc1ccccc1)C(Cl)=C(Cl)Cl | 0.401 µM (active) | 1.53 µM (inactive) | 0.177 µM (active) | 2.26 µM (inactive) | 0.458 µM (active) | 1.69 µM (inactive) | 0.0948 µM (active) | 0.0923 µM (active) | 2.39 µM (inactive) | – | 1.24 µM (inactive) | 0.323 µM (active) | 0.334 µM (active) | 2.26 µM (inactive) | 0.278 µM (active) | 0.652 µM (active) | 1.18 µM (inactive) | 0.0597 µM (active) | 0.0975 µM (active) | 0.21 µM (active) |
| O=C1Nc2cccc3cc(NCC(O)CCl)cc1c23 (centres undefined) | > 100 µM (inactive) | 32.9 µM (inactive) | 27.3 µM (inactive) | 21.5 µM (inactive) | 88.1 µM (inactive) | 49.8 µM (inactive) | 75.5 µM (inactive) | 91.2 µM (inactive) | 91 µM (inactive) | – | > 100 µM (inactive) | > 100 µM (inactive) | 54.2 µM (inactive) | 38.8 µM (inactive) | 88.5 µM (inactive) | 64.7 µM (inactive) | 39.9 µM (inactive) | 33.7 µM (inactive) | 11.7 µM (inactive) | 45.7 µM (inactive) |
| C/C=C/[C@H]1O[C@@](O)([C@@H](C)[C@H](O)[C@H](C)[C@H]2OC(=O)/C(OC)=C/C(C)=C/[C@@H](C)[C@@H](O)[C@@H](CC)[C@@H](O)[C@H](C)C/C(C)=C/C=C/[C@@H]2OC)C[C@H](OC2CC(O)C(O)C(C)O2)[C@@H]1C (some centres undefined) | 0.244 µM (active) | < 0.0075 µM (active) | < 0.0075 µM (active) | < 0.0075 µM (active) | < 0.0075 µM (active) | < 0.0075 µM (active) | 9.48 µM (inactive) | < 0.0075 µM (active) | < 0.0075 µM (active) | – | 0.406 µM (active) | < 0.0075 µM (active) | < 0.0075 µM (active) | < 0.0075 µM (active) | < 0.0075 µM (active) | < 0.0075 µM (active) | < 0.0075 µM (active) | < 0.0075 µM (active) | < 0.0075 µM (active) | < 0.0075 µM (active) |
| Cc1ccc(NC(=O)NC23CC4CC(CC(F)(C4)C2)C3)cc1 | – | > 100 µM (inactive) | > 100 µM (inactive) | > 100 µM (inactive) | > 100 µM (inactive) | > 100 µM (inactive) | > 100 µM (inactive) | 44.6 µM (inactive) | > 100 µM (inactive) | 45.9 µM (inactive) | 99.3 µM (inactive) | > 100 µM (inactive) | – | – | – | – | – | 41.3 µM (inactive) | – | – |
